Source: patent US20040126343A1, “Nail drug delivery” (priority 2002, published 2004)

Columns and labels:
[1] = Penetration of radiolabeled model compounds into human nail plate, diffusion cell, twice daily topical dosing for 7 days; conditions: for Increase of radioactivity in the ventral surface of the nail plate, carrier formulation compared with saline control / Radioactive Content, Dorsal/intermediate center / Radioactive Content, Ventral/intermediate center: twice daily for 7 days; for Increase of radioactivity in the ventral surface of the nail plate, carrier formulation compared with saline control: p<0.05; for Percent Applied Dose, Cotton supporting bed / Percent Applied Dose, Dorsal/intermediate center / Percent Applied Dose, Remainder of nail / Percent Applied Dose, Subtotal (nail) / Percent Applied Dose, Surface Washing / Percent Applied Dose, Total (mass balance) / Percent Applied Dose, Ventral/intermediate center / Radioactive Content, Dorsal/intermediate center / Radioactive Content, Ventral/intermediate center: mean (SD) of five tests
Experimental: Nail plates were collected from adult human cadavers and stored in a closed container at 0° C. Before each experiment, nail samples were gently washed with normal saline to remove any contamination, then rehydrated by placing them for 3 h on a cloth wetted with normal saline.
The test formulation contains 45% DMSO, 11% glycerin, 11% ethanol, 11% propylene glycol and water, as discussed in Hewitt P G, et al., 1998, Pharm Res 15:988-992. Normal saline (ABBOTT Laboratories, North Chicago, Ill.) was the control. […] A 5 μL aliquot was removed from each vial and radioactivity was measured in a Packard Liquid Scintillation Counter (model 1500).
A 5 μL dosing aliquot of each of the six test solutions was applied to the surface of a nail plate with a microsyringe twice daily, approximately 8 h apart for 7 days. Starting the second day, each morning before dosing, the surface of the nail was washed with cotton tips in a cycle, as follows: a dry tip, then a tip wetted with 50% skin cleansing liquid Ivory soap, then a tip wetted with distilled water, then another tip wetted with distilled water, then a final dry tip. This simulated a daily bathing. The washing samples from each cycle from each nail were pooled and collected by breaking off the cotton tip into scintillation glass vials. An aliquot of 5.0 mL methanol was added into each vial to extract test material. The radioactivity of each sample was measured in a liquid scintillation counter.
A Teflon® one-chamber diffusion cell (AMIE Systems) was used to hold each nail. To approximate physiological conditions, a small cotton ball wetted with 0.1 mL normal saline was placed in the chamber to serve as a “nail bed” and provide moisture for the nail plate. On day 5, 0.1 mL normal saline was injected through the inlet into the chamber to keep the cotton ball wet. A 1.5×1.5 cm aluminum sheet (0.24 mm thickness) with a hole in the center (1.0 cm diameter) was centered and glued to the top (dorsal) surface of the nail as a “frame” for the seal. The aluminum sheet frame flattens the curved nail and extends the surface area of the nail plate to fit the size of the top cover, so that potential leaking is prevented. The nail plate was placed on a ledge inside the receptor (1.0 cm in diameter and 0.5 cm high), sheet side up. The ventral (inner) surface of the nail was placed face down and rested on the wet cotton ball. Hydration of the nail plate and the supporting cotton bed was measured with a relative humidity/temperature meter (Corneometer CM 820; Courage & Khazaka, Cologne, Germany). Hydration was expressed digitally in arbitrary units (AU).
The rim of the cell base was covered with silicon gel and the top cover was set into the gel to prevent leaking. The metal holder was then tightly screwed into place.
The cells were placed on a platform in a large glass holding tank filled with saturated sodium phosphate solution. A digital relative humidity/temperature meter was used for monitoring room temperature, the chamber temperature, and humidity. The holding tank was then covered, thereby maintaining the cells at a constant humidity of 40%.
The sampling instrument consisted of a drill (Dremel™ model 2850; Dremel Inc., Racine, Wis.), a drill press (Dremel™), an adjustable stage (Fisher, Pittsburgh, Pa.) with an adjustable holder, and a high-speed cutter ( 5/16 inch or 7.9 mm in diameter).
After completion of the incubation phase, the nail plate was removed from the diffusion cell. The aluminum sheet frame was peeled off and placed in a glass scintillation vial. The nail plate was transferred to a clean Teflon® diffusion cell for processing. The nail plate was inverted so that the ventral (nail bed) surface faced up and the dorsal (outer) dosed surface faced down. A top cover was tightly screwed into place. The cell was placed in the middle of the holds on the adjustable stage.

[2] = cited from earlier work
[3] = cited from earlier work; remark: listed apart in the source
[4] = Test Carrier Formulation (45% DMSO)

In the case of `CC(=O)N1CCN(c2ccc(OCC3COC(Cn4ccnc4)(c4ccc(Cl)cc4Cl)O3)cc2)CC1` (stereo not shown) [Ketoconazole, ketoconazole], the “Increase of radioactivity in the ventral surface of the nail plate, carrier formulation compared with saline control” value (“Increase of radioactivity” for short) [1] is reported as “approximately 50%”.
For `O=C(O)c1ccccc1O` [salicylic acid], the “Percent Applied Dose, Cotton supporting bed” value ([1]; Saline Formulation) was 3.66 (2.02) Percent Applied Dose, the “Percent Applied Dose, Dorsal/intermediate center” value ([1]; Saline Formulation) was 47.10 (7.76) Percent Applied Dose and the “Percent Applied Dose, Remainder of nail” value ([1]; Saline Formulation) was 14.20 (5.10) Percent Applied Dose. For the same compound, the “Percent Applied Dose, Subtotal (nail)” value ([1]; Saline Formulation) was 63.83 (9.54) Percent Applied Dose, the “Percent Applied Dose, Surface Washing” value ([1]; Saline Formulation) was 20.69 (5.97) Percent Applied Dose and the “Percent Applied Dose, Total (mass balance)” value ([1]; Saline Formulation) was 88.18 (5.52) Percent Applied Dose. The “Percent Applied Dose, Ventral/intermediate center” value ([1]; Saline Formulation) was 2.53 (0.51) Percent Applied Dose, the “Radioactive Content, Dorsal/intermediate center” value ([1]; Saline Formulation) was 71.6 (10.6) μg Eq./g Nail Sample and the “Radioactive Content, Ventral/intermediate center” value ([1]; Saline Formulation) was 7.0 (1.1) μg Eq./g Nail Sample. The “Radioactive Content, Dorsal/intermediate center” value [1, 4] was 16.3 (4.2) μg Eq./g Nail Sample, the “Radioactive Content, Ventral/intermediate center” value [1, 4] was 10.2 (0.6) μg Eq./g Nail Sample and the “Percent Applied Dose, Cotton supporting bed” value ([1]; Test Carrier Formulation) was 2.23 (0.75) Percent Applied Dose. The “Percent Applied Dose, Dorsal/intermediate center” value ([1]; Test Carrier Formulation) was 4.96 (2.13) Percent Applied Dose, the “Percent Applied Dose, Remainder of nail” value ([1]; Test Carrier Formulation) was 3.87 (1.26) Percent Applied Dose and the “Percent Applied Dose, Subtotal (nail)” value ([1]; Test Carrier Formulation) was 15.87 (3.76) Percent Applied Dose. For the same compound, the “Percent Applied Dose, Surface Washing” value ([1]; Test Carrier Formulation) was 70.86 (2.62) Percent Applied Dose, the “Percent Applied Dose, Total (mass balance)” value ([1]; Test Carrier Formulation) was 88.96 (2.29) Percent Applied Dose and the “Percent Applied Dose, Ventral/intermediate center” value ([1]; Test Carrier Formulation) was 7.04 (2.67) Percent Applied Dose. The “Increase of radioactivity” value [1] was “approximately 50%”.
For `O=C(O)Cc1ccccc1Nc1c(Cl)cccc1Cl` [diclofenac], the “Human skin penetration over the 48 h of study” value ([2]; multiple dosing, four doses/day for 2 days, in the carrier, compared with a saline control) is listed as “continually increased”.
In the case of `NC(N)=O` [Urea, urea], the pKa [3] is listed as 0.1, the “Radioactive Content, Dorsal/intermediate center” value ([1]; Saline Formulation) is listed as 0.4 (0.3) μg Eq./g Nail Sample and the “Radioactive Content, Ventral/intermediate center” value ([1]; Saline Formulation) is listed as 0.2 (0.09) μg Eq./g Nail Sample. The “Radioactive Content, Dorsal/intermediate center” value [1, 4] was 0.8 (0.5) μg Eq./g Nail Sample, the “Radioactive Content, Ventral/intermediate center” value [1, 4] was 0.35 (0.15) μg Eq./g Nail Sample and the “Increase of radioactivity” value [1] was “approximately 50%”.
In the case of `O=C(O)Cc1ccccc1Nc1c(Cl)cccc1Cl` [diclofenac sodium], the “Permeability of human skin with the percutaneous drug-enhancing formulation” value ([2]; carrier formulation) is given as “enhanced the permeability”.
